Assay results as given in PMC6934184, “Selective DNA-PKcs inhibition extends the therapeutic index of localized radiotherapy and chemotherapy” (The Journal of Clinical Investigation, 2019).
Values joined by “and” are separate entries in the source; they are usually repeats but may differ in a detail not shown here. Equal values may be shown once. “Also recorded” adds a separate entry of the source.

Experiments:
[1] = tested on: skin immediately surrounding the tumor; assay: γH2AX foci in skin surrounding subcutaneous Calu-6 tumor; format: in vivo, mouse; settings: 5 hours after 3.3 Gy, 30 mg/kg oral, P = 0.09
Experimental: Subcutaneous non–small cell lung cancer xenografts were generated in CD-1 nude or BALB/c nude mice using A549 and Calu-6 cells, respectively, as previously described ([53]). When tumors reached 100 mm^3, mice were randomized into 4 groups (n = 7–9 per group) to receive (a) vehicle (orally) 30 minutes before mock radiation, (b) NU5455 (30 mg/kg orally) 30 minutes before mock radiation, (c) targeted tumor radiation at a single dose of 3.3 or 10 Gy, or (d) NU5455 (30 mg/kg orally) 30 minutes before 3.3 Gy or 10 Gy targeted tumor radiation. […]
NSCLC subcutaneous xenografts were generated as previously described ( 53). […] Mouse weights and tumor volumes (1/2 x length x width x depth) were measured three times a week.
Targeted radiotherapy in subcutaneous and orthotopic NSCLC xenograft models When subcutaneous xenografts reached 100 mm3, mice were randomized into four groups (n = 7 - 11/group): (i) N-Methyl-2-pyrrolidone (NMP): 30% Encapsin : PEG400 (1:6:3 v/v/v) vehicle p.o. 30 minutes prior to mock radiation. […] The remaining mice were monitored for tumor growth until the sizes of tumo rs reached 400 mm 3 or up to 38 days after initiation of […]
Tissues were fixed in 4% paraformaldehyde (PFA) and paraffin -embedded. […] The percentage of γH2AX and 53BP1 positive nuclei in lung epithelial cells was quantified manually in normal lung samples across 5 randomly-chosen fields of view per […]

SJSA-1 tumor xenografts = assay: subcutaneous SJSA-1 xenograft with parenteral etoposide; format: in vivo, CD-1 nude mice
Experimental: Combining systemic administration of etoposide + NU5455 in vivo
SJSA1 cells (1 x 10^7 cells/mouse in 50 µl, 50% v/v Matrigel) were implanted s.c. into the right flank of female CD-1 nude mice. When tumor volumes reached 103-121 mm3 mice were treated daily, for five consecutive days, with NU5455 (30 mg/kg or 100 mg/kg once -daily p.o. in NMP:Encapsin (30% aq):PEG4000 (1:6:3 v/v/v) ) or vehicle, followed immediately with etoposide (5 mg/kg i.p. in saline). Body weight and tumor volume measurements were taken daily during treatment and three times per week post -treatment. Tumor volume was calculated from two-dimensional electronic caliper measurements (Mitutoyo) using the equation ‘width2 x length/2’, where width was the smaller side, and length the longer dimension of the tumor. Mice were humanely killed when; (i) an adverse effect on clinical condition was evident, (ii) tumor bilateral measurements reached 10 mm x 10 mm, (iii) a tumor measurement in any di mension reached 15 mm, or (iv) at study termination. […]

CN(C(=O)CN1CCOCC1)c1ccc2sc3c(-c4cccc5c(=O)cc(N6CC7CCC(C6)O7)oc45)cccc3c2c1 [NU5455]
radiation-induced γH2AX foci, fold augmented with NU5455 [1]: 1.6 fold
enhancement of etoposide antitumor effect (SJSA-1 tumor xenografts; NU5455 30 mg/kg oral + etoposide 5 mg/kg i.p., 5 consecutive days): does not significantly enhance; also recorded: did not enhance it significantly
body weight (SJSA-1 tumor xenografts; NU5455 100 mg/kg oral + etoposide 5 mg/kg i.p.): increased weight loss by day 8
enhancement of etoposide antitumor activity (SJSA-1 tumor xenografts; NU5455 100 mg/kg oral + etoposide 5 mg/kg i.p., 5 sequential days): potentiated significantly
animals requiring humane intervention (>15% body-weight loss) (SJSA-1 tumor xenografts; day 8, NU5455 100 mg/kg oral + etoposide 5 mg/kg i.p.): 2 of 10 and 2
tolerability, NU5455 alone (SJSA-1 tumor xenografts; greater dose (100 mg/kg oral)): well tolerated by itself
